“And” between values parts separate entries of the source, which are not always exact repeats. Equal entries are not always repeated. d = 2'-deoxy (DNA); m = 2'-O-methyl; f = 2'-fluoro
Legend:
ras mRNA = assay: Northern blot analysis of ras expression in T24 cells; assay type: cell-based, human; set-up: inhibition of ras expression / decrease of ras mRNA: concentration or dose not given beside the values; settings: T24 cells, Northern blot
Description: The human urinary bladder cancer cell line T24 was obtained from the American Type Culture Collection (Rockville Md.). Cells were grown in McCoy's 5A medium with L-glutamine (GIBCO-BRL, Gaithersburg, Md.), supplemented with 10% heat-inactivated fetal calf serum and 50 U/ml each of penicillin and streptomycin. Cells were seeded on 100 mm plates. When they reached 70% confluency, they were treated with oligonucleotide. Plates were washed with 10 ml prewarmed PBS and 5 ml of OptiMEM (GIBCO) reduced-serum medium containing 2.5 μl DOTMA. Oligonucleotide was then added to the desired concentration. After 4 hours of treatment, the medium was replaced with McCoy's medium. Cells were harvested 48 hours after oligonucleotide treatment and RNA was isolated using a standard CsCl purification method. [Kingston in Current Protocols in Molecular Biology, F. M. Ausubel, R. Brent, R. E. Kingston, D. D. Moore, J. A. Smith, J. G. Seidman and K. Strahl, Eds., John Wiley and Sons, New York.] The human epithelioid carcinoma cell line HeLa 229 was obtained from the American Type Culture Collection (Bethesda, Md.). HeLa cells were maintained as monolayers on 6-well plates in Dulbecco's Modified Eagle's medium (DMEM) supplemented with 10% fetal bovine serum and 100 U/ml penicillin. Treatment with oligonucleotide and isolation of RNA were essentially as described above for T24 cells.
Northern hybridization: 10 μg of each RNA was electrophoresed on a 1.2% agarose/formaldehyde gel and transferred overnight to GeneBind 45 nylon membrane (Pharmacia LKB, Piscataway, N.J.) using standard methods. [Kingston in Current Protocols in Molecular Biology, F. M. Ausubel, R. Brent, R. E. Kingston, D. D. Moore, J. A. Smith, J. G. Seidman and K. Strahl, Eds., John Wiley and Sons, New York.] RNA was UV-crosslinked to the membrane. Double-stranded ^32P-labeled probes were synthesized using the Prime a Gene labeling kit (Promega, Madison, Wis.). The ras probe was a SalI-NheI fragment of a cDNA clone of the activated (mutant) H-ras mRNA having a GGC-to-GTC mutation at codon-12. The control probe was G3PDH. Blots were prehybridized for 15 minutes at 68° C. with the QuickHyb hybridization solution (Stratagene, La Jolla, Calif.). The heat-denatured radioactive probe (2.5×10^6 counts/2 ml hybridization solution) mixed with 100 μl of 10 mg/ml salmon sperm DNA was added and the membrane was hybridized for 1 hour at 68° C. The blots were washed twice for 15 minutes at room temperature in 2×SSC/0.1% SDS and once for 30 minutes at 60° C. with 0.1×SSC/0.1%SDS. Blots were autoradiographed and the intensity of signal was quantitated using an ImageQuant PhosphorImager (Molecular Dynamics, Sunnyvale, Calif.). Northern blots were first hybridized with the ras probe, then stripped by boiling for 15 minutes in 0.1×SSC/0.1%SDS and rehybridized with the control G3PDH probe to check for correct sample loading.

[1] = test system: complementary RNA strand (the sense strand); assay: Thermal melting analysis of 2′-deoxy-2′-fluoro modified antisense oligonucleotides with complementary RNA; assay type: binding; settings: for Tm (° C.)/ subst.: change in Tm per 2′-fluoro substitution; for Tm (° C.): second Tm column: change in Tm versus unmodified oligonucleotide
[2] = test system: mutant (activated) H-ras RNA; assay type: cell-based, human
[3] = first G°37 column: free energy of duplex with complementary RNA
[4] = second G°37 column: change versus unmodified oligonucleotide

CTTATATTCCGTCATCGCTC [Oligonucleotide 2502]
inhibition of ras expression / decrease of ras mRNA (ras mRNA; listed as 2502): 26%

CTTATATTCCGTCATCGCTC [Oligonucleotide 4998]
inhibition of ras expression / decrease of ras mRNA (ras mRNA; listed as 4998): 84%

CGA CUAUGCAAG UAC (CGACUAUGCAAGUAC; chemistry not fully specified)
Tm (° C.)/ subst. [1]: +1.7 °C
G°37 [1, 3]: -16.18 ± 0.08 kcal/mol
G°37 [1, 4]: -6.07 ± 0.09 kcal/mol
Tm (° C.) [1]: +13.8 °C

CGACUAUGCAAG UAC (CGACUAUGCAAGUAC; chemistry not fully specified)
Tm (° C.)/ subst. [1]: +1.8 °C
G°37 [1, 3]: -19.85 ± 0.05 kcal/mol
G°37 [1, 4]: -9.74 ± 0.06 kcal/mol
Tm (° C.) [1]: +20.1 °C

C^FC^FA^F C^FA^FCd CdGdAd CdGdGd C^FG^FC^F C^FC^F [Oligonucleotide 4690]
inhibition of ras expression / decrease of ras mRNA (ras mRNA): 82%

C^MC^MA^M C^MA^MC^M C^MG^MAd C^MG^MG^M C^MG^MC^M C^MC^M [Oligonucleotide 3975]
inhibition of ras-luciferase activity [2]: neither of the oligonucleotides having either the one or the three 2′-deoxy-erythro-pentofuranosyl nucleotide subsequences showed significant activity

C^MC^MA^M C^MA^MC^M C^MGdAd CdG^MG^M C^MG^MC^M C^MC^M [Oligonucleotide 3979]
inhibition of ras-luciferase activity [2]: neither of the oligonucleotides having either the one or the three 2′-deoxy-erythro-pentofuranosyl nucleotide subsequences showed significant activity

C^MC^MA^M C^MA^MC^M CdGdAd CdGdG^M C^MG^MC^M C^MC^M [Oligonucleotide 3980]
inhibition of ras expression / decrease of ras mRNA (ras mRNA): 61%
inhibition of ras-luciferase activity [2]: next greatest inhibition

C^MC^MA^M C^MA^MCd CdGdAd CdGdGd C^MG^MC^M C^MC^M (antisense CCACACCGACGGCGCCC; sugars from the 5' end m5 d7 m5, backbone and methylation of C not given here) [Oligonucleotide 3985, 2′-O-methyl P═S chimera, 7-deoxy gap]
inhibition of ras expression / decrease of ras mRNA (ras mRNA): 95% and 81%
inhibition of ras-luciferase activity [2]: greatest inhibition

C^MC^MA^M C^MAdCd CdGdAd CdGdGd CdG^MC^M C^MC^M [Oligonucleotide 3984]
inhibition of ras expression / decrease of ras mRNA (ras mRNA): 81%

CsCsAsCoAoCoCoGoAoCoGoGoCoGsCsCsC [Oligonucleotide 4241]
effect on ras expression [2]: completely inactive

CsCsAsCsAsCsCsGsAoCsGsGsCsGsCsCsC [Oligonucleotide 4248]
effect on ras expression [2]: just as active as a full P═S molecule

Oligonucleotide 4689: SEQ ID NO:1, 2′-fluoro-modified nucleotides flanking a 5-deoxy gap (CCACACCGACGGCGCCC; sugars from the 5' end f6 d5 f6, all phosphorothioate, methylation of C not given here)
inhibition of ras expression / decrease of ras mRNA (ras mRNA): 63%

TCCGTCATCGCTCCTCAGGG [Oligonucleotide 5122]
inhibition of ras expression / decrease of ras mRNA (ras mRNA; listed as 5122): 15%

oligonucleotide with the 2′-O-propyl diester flanking regions: SEQ ID NO:1, phosphorothioate in the 7-base deoxy gap only, phosphodiester 2′-O-propyl flanking regions (DNA CCACACCGACGGCGCCC; sugars by position and backbone not given here; 2'-O-propyl phosphodiester flanks, 7-base phosphorothioate deoxy gap)
effect on ras expression [2]: able to inhibit ras expression

Reference: patent US6531584B1, “2'modified oligonucleotides” (ISIS Pharmaceuticals, Inc., priority 1990, dated 2003)
